Measurements reported in ChEMBL document CHEMBL2010665, “Novel, druglike 1,7-disubstituted 2,3,4,5-tetrahydro-1H-benzo[b]azepine-based selective inhibitors of human neuronal nitric oxide synthase (nNOS)” (Bioorg Med Chem Lett, 2012).
Each block holds one molecule with its values, some of them ahead of it.

Key:
Nitric oxide synthase 1 = Nitric oxide synthase 1 (Homo sapiens, UniProt P29475); test: Inhibition of human recombinant nNOS expressed in baculovirus infected insect sf9 cells assessed as conversion of [3H]-L-arginine into [3H]-L-citrulline by radiometric method
Nitric oxide synthase 1, sequence (P29475 whole entry): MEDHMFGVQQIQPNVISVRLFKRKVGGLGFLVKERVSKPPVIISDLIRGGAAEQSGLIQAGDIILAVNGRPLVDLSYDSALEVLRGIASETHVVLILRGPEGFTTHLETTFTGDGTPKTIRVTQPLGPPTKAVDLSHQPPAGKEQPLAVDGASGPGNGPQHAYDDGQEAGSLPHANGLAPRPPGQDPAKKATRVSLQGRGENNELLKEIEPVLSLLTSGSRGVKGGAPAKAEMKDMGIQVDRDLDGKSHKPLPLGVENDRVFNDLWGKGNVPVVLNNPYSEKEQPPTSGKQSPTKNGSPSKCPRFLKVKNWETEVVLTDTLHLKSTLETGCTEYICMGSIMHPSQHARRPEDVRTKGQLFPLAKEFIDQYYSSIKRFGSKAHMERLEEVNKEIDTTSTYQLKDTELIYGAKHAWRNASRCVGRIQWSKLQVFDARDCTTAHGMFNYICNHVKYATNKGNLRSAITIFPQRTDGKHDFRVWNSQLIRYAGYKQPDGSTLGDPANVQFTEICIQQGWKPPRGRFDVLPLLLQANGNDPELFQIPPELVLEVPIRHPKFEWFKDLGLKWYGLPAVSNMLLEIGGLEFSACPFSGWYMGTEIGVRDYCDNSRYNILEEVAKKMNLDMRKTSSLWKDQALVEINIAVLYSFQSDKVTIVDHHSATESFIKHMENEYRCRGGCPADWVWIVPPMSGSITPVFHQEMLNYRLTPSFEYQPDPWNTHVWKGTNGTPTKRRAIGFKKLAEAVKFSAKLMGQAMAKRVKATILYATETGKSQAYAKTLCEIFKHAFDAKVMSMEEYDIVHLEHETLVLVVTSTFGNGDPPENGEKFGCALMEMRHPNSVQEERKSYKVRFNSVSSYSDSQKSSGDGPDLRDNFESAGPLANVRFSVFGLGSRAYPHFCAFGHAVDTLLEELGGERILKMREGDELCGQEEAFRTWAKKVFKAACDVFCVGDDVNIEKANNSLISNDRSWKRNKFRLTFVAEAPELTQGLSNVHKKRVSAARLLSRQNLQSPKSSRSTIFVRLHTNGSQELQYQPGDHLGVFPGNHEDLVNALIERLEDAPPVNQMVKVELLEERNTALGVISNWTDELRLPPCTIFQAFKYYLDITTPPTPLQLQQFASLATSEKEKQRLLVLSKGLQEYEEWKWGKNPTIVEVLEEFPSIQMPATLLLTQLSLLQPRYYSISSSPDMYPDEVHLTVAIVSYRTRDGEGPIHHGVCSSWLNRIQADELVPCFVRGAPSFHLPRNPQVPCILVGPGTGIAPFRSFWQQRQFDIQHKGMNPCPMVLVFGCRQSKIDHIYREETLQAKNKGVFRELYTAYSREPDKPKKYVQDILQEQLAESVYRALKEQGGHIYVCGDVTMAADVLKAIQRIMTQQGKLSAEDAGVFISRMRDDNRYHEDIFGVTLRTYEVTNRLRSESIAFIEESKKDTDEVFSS

Nitric oxide synthase 3 = molecular target: T1, Nitric oxide synthase 3 (Homo sapiens, UniProt P29474); test: Inhibition of human recombinant eNOS expressed in baculovirus infected insect sf9 cells assessed as conversion of [3H]-L-arginine into [3H]-L-citrulline by radiometric method
T1 sequence (P29474 whole entry): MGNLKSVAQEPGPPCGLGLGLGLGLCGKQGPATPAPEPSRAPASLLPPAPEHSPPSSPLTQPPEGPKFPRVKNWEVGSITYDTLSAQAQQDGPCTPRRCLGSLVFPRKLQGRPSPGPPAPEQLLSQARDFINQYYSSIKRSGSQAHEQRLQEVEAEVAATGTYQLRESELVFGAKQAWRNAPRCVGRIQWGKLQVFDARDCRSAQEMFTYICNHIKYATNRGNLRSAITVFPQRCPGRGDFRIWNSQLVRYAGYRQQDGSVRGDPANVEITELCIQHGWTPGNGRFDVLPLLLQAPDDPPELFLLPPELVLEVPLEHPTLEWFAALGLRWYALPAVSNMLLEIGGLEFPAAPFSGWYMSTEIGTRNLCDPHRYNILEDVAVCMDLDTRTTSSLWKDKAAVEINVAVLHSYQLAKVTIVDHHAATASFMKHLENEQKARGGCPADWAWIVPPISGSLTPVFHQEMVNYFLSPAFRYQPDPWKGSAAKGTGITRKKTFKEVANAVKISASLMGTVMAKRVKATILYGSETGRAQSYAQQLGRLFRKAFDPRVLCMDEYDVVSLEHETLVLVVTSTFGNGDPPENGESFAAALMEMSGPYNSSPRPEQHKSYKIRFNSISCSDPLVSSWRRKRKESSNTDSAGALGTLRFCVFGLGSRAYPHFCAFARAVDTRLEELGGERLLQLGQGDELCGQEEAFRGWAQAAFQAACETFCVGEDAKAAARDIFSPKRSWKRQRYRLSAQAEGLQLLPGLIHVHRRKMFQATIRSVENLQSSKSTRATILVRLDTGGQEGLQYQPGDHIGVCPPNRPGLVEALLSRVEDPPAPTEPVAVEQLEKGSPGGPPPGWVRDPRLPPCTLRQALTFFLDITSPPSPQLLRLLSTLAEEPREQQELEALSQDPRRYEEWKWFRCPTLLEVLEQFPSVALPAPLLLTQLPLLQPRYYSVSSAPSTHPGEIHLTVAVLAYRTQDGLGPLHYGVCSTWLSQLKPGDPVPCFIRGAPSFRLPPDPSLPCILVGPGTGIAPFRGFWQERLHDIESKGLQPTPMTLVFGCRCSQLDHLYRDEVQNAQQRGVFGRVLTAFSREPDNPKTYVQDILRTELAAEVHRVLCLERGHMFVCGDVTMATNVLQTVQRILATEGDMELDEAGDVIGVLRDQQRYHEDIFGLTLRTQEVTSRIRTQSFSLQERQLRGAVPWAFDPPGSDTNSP

[1] = molecular target: Nitric oxide synthase, inducible (Homo sapiens, UniProt P35228); test: Inhibition of human recombinant iNOS expressed in baculovirus infected insect sf9 cells assessed as conversion of [3H]-L-arginine into [3H]-L-citrulline by radiometric method
Nitric oxide synthase, inducible (Homo sapiens, UniProt P35228), sequence (P35228 whole entry): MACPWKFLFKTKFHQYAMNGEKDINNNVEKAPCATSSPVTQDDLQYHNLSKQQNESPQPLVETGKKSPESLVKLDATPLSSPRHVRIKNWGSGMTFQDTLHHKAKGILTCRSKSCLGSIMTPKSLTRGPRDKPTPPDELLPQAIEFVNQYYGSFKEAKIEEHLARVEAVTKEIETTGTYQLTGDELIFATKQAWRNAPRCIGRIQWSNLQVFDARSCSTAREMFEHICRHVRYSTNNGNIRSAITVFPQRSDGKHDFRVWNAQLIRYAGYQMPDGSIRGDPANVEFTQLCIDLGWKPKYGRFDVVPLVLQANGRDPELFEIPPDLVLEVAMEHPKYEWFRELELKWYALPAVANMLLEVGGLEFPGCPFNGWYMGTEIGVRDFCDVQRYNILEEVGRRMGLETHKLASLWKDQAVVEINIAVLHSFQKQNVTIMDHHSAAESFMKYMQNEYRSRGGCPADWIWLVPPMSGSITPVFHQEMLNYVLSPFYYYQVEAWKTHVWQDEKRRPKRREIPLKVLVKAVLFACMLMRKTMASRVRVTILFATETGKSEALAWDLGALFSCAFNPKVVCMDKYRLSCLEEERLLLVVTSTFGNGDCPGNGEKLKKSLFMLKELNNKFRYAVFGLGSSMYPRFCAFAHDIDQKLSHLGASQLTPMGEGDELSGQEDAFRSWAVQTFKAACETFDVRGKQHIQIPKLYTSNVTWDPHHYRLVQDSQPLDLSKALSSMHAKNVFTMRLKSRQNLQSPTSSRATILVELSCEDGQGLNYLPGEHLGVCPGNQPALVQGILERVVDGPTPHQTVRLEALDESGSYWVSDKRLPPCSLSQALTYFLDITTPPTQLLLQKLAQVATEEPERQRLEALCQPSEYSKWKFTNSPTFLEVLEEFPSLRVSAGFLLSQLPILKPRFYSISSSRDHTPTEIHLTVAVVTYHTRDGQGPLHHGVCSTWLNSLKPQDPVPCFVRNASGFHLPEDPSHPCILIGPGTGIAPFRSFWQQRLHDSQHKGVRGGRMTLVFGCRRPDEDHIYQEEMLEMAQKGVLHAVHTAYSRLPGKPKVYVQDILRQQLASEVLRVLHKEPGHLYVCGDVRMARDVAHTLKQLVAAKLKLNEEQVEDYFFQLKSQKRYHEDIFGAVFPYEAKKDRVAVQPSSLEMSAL

[2] = molecular target: Nitric oxide synthase, inducible (Rattus norvegicus, UniProt Q06518); test: Inhibition of rat iNOS
Nitric oxide synthase, inducible (Rattus norvegicus, UniProt Q06518), sequence (Q06518 whole entry): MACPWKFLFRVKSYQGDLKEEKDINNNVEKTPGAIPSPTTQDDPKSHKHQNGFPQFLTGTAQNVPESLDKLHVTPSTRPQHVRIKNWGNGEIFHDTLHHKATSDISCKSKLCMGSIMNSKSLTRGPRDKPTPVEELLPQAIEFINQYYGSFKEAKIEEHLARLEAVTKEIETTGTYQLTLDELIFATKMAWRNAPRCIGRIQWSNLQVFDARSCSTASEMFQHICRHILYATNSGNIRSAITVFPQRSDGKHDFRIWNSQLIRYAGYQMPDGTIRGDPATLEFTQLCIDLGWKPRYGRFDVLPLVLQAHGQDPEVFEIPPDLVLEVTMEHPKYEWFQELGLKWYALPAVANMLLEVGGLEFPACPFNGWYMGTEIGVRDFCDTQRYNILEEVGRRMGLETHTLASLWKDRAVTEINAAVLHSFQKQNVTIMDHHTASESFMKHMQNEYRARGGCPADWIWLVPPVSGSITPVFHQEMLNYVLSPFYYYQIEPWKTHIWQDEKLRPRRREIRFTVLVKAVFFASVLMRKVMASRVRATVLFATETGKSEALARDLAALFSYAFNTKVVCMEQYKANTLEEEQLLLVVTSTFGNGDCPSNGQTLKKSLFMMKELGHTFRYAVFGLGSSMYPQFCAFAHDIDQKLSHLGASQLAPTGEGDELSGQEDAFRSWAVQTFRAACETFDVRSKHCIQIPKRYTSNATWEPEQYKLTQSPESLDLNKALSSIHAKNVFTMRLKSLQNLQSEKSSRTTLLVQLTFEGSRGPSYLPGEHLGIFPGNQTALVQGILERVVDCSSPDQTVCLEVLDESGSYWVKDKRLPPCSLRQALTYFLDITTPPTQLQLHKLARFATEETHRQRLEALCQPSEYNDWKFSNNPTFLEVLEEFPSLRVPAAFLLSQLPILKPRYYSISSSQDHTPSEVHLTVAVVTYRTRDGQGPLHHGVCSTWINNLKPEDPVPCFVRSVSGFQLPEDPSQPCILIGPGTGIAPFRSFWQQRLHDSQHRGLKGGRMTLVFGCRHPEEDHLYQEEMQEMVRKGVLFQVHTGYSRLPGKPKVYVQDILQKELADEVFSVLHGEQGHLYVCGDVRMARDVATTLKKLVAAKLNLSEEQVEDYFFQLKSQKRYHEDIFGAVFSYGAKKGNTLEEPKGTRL

[3] = molecular target: Voltage-gated inwardly rectifying potassium channel KCNH2 (Homo sapiens, UniProt Q12809); test: Inhibition of human Erg expressed in HEK293 cells up to 30 uM by patch clamp assay; assay type: cell-based
Voltage-gated inwardly rectifying potassium channel KCNH2, sequence (Q12809 whole entry): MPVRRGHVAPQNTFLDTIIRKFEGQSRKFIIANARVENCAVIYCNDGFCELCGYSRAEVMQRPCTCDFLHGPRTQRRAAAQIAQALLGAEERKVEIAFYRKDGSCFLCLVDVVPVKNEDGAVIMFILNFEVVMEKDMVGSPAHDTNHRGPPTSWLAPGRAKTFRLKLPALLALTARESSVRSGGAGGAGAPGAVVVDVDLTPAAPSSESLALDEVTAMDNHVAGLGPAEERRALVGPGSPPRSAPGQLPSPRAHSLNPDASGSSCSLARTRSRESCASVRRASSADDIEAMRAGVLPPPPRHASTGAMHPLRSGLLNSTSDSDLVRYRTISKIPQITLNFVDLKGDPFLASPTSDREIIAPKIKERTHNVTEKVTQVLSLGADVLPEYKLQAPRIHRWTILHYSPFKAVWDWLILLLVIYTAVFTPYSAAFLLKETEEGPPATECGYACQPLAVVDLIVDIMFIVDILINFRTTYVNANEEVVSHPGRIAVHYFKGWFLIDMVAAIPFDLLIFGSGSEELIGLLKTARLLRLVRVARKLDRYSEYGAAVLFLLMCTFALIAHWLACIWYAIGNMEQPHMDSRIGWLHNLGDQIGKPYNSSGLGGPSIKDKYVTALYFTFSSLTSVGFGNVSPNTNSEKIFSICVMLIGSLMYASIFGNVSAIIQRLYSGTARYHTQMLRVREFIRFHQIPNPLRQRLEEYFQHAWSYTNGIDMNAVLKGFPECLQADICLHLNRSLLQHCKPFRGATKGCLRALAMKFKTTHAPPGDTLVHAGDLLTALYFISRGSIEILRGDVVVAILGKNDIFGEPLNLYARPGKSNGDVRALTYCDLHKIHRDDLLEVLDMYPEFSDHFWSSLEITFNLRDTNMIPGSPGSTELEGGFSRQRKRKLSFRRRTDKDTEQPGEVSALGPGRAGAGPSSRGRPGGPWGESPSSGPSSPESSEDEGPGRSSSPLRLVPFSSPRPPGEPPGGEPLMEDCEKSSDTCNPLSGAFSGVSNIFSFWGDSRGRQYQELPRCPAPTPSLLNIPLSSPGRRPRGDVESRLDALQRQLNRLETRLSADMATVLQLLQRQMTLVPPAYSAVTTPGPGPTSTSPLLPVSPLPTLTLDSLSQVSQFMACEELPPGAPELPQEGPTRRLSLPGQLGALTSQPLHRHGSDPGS

Structure (SMILES): N=C(Nc1ccc2c(c1)CCCCN2CCN1CCCC1)c1cccs1
IC50 (Nitric oxide synthase 1): 0.16 µM
IC50 (Nitric oxide synthase 3): 82.2 µM
IC50 [1]: 16.9 µM

Structure (SMILES): CN(C)CCN1CCCCc2cc(NC(=N)c3cccs3)ccc21.Cl.Cl
IC50 [2]: > 100 µM
IC50 [1]: 1.5 µM
inhibition (INH) [3]: Not Active

Structure (SMILES): N=C(Nc1ccc2c(c1)CCCCN2C1CCNC1)c1cccs1 (racemic)
IC50 [1]: 13.5 µM

Structure (SMILES): CN1CCCC1CCN1CCCCc2cc(NC(=N)c3cccs3)ccc21 (racemic)
IC50 (Nitric oxide synthase 1): 1.86 µM
IC50 [1]: > 100 µM

More lines, now with the values ahead:

IC50 (Nitric oxide synthase 1): 2.38 µM
Structure (SMILES): N=C(Nc1ccc2c(c1)CCCCN2C1CCNCC1)c1cccs1

IC50 (Nitric oxide synthase 1): 1.96 µM
Structure (SMILES): N=C(Nc1ccc2c(c1)CCCCN2CCN1CCCCC1)c1cccs1

IC50 (Nitric oxide synthase 1): 0.1 µM
IC50 [1]: > 100 µM
Structure (SMILES): CNCCN1CCCCc2cc(NC(=N)c3cccs3)ccc21

IC50 [1]: > 100 µM
Structure (SMILES): CN1CCC(N2CCCCc3cc(NC(=N)c4cccs4)ccc32)C1 (racemic)
